Laboratory results taken from patent US9243025B2, “Compounds and pharmaceutical compositions for the treatment of viral infections” (Idenix Pharmaceuticals, LLC, priority 2011, dated 2016).
Where two headings read alike, the source gives them in different places.

Tests used:
Format in all cases: cell-based
[1] = system: GS4.1 cells; test: Cytotoxicity evaluation in GS4.1 cells (Cell Titer 96 AQueous One Solution Cell Proliferation Assay); settings: cellular viability, treated as in replicon assay, read-out: HCV Replicon CC50
Protocol: (§1) Huh-7 cells containing HCV Coni subgenomic replicon (GS4.1 cells), (C. Seeger; Fox Chase University, Philadelphia, Pa., USA), are grown in Dulbecco's Modified Eagle Medium (DMEM) supplemented with 10% fetal bovine serum (FBS), 2 mM L-glutamine, 110 mg/L sodium pyruvate, 1× non-essential amino acids, 100 U/mL penicillin-streptomycin and 0.5 mg/mL G418 (Invitrogen). For dose-response testing, the cells are seeded in 96-well plates at 7.5×10^3 cells/well in a volume of 50 μL and incubated at 37° C./5% CO2. Three hours after plating, 50 μL of ten 2-fold serial dilutions of compounds (highest concentration, 75 μM) are added and cell cultures were incubated at 37° C./5% CO2 in the presence of 0.5% DMSO. Alternatively, compounds are tested at a single concentration of 15 μM. In all cases, Huh-7 cells lacking the HCV replicon served as negative control. The cells are incubated in the presence of compounds for 72 hours after which they were monitored for expression of the NS4A protein by enzyme-linked immunosorbent assay (ELISA). For this, the plates were then fixed for 1 min with 1:1 acetone:methanol, washed twice with phosphate-buffered saline (PBS), 0.1% Tween 20, blocked for 1 hour at room temperature with TNE buffer containing 10% FBS and then incubated for 2 h at 37° C. with the anti-NS4A mouse monoclonal antibody A-236 (ViroGen) diluted in the same buffer. After washing three times with PBS, 0.1% Tween 20, the cells are incubated 1 hour at 37° C. with anti-mouse immunoglobulin G-peroxidase conjugate in TNE, 10% FBS. After washing as described above, the reaction is developed with O-phenylenediamine (Zymed). The reaction is stopped after 30 minutes with […] and the absorbance is read at 492 nm using a Sunrise Tecan spectrophotometer. EC50 values are determined from the % inhibition versus concentration data using a sigmoidal non-linear regression analysis based on four parameters with Tecan Magellan software. When screening at a single concentration, the results are expressed as % inhibition at 15 μM. For cytotoxicity evaluation, GS4.1 cells are treated with compounds as described above and cellular viability was monitored using a Cell Titer 96 AQueous One Solution Cell Proliferation Assay (Promega). CC50 values are determined from the % cytotoxicity versus concentration data with Tecan Magellan software as described above.

[2] = system: Huh-7 cells containing HCV Coni subgenomic replicon (GS4.1 cells); test: HCV replicon assay; settings: read-out: HCV Replicon EC50
Protocol: as §1
Compounds presented in the table below were assayed according to the replicon assay described above.

[3] = Cytotoxicity evaluation in GS4.1 cells (Cell Titer 96 AQueous One Solution Cell Proliferation Assay); settings: human, cellular viability, treated as in replicon assay, read-out: HCV Replicon CC50
Protocol: as §1

[4] = Hepatitis C virus, Huh-7, 72 h, GS4.1 cells, 72 hours incubation, NS4A expression by ELISA

Row | Compound | CC50 [1] | EC50 ([2]; GS4.1 cells, 72 hours incubation, NS4A expression by ELISA) | CC50 at 72 h [3] | EC50 [2, 4] | EC50 ([2]; Hepatitis C virus, Huh-7, 72 h)
1 | CCOC(=O)[C@@H](CC(C)C)NP(=O)(N[C@H](CC(C)C)C(=O)OCC)OC[C@H]1O[C@@H](n2cnc3c(OC)nc(N)nc32)C(C)(O)C1O (stereo partly shown) [Compound 66] | ≤ 75 µM | 0.1 to 1 µM |  |  | 
2 | CCOC(=O)[C@H](CC(C)C)NP(=O)(N[C@@H](CC(C)C)C(=O)OCC)OC[C@H]1O[C@@H](n2cnc3c(NC4CCCC4)nc(N)nc32)C(C)(O)C1O (stereo partly shown) [Compound 38] |  |  | ≤ 75 µM | < 0.1 µM | 
3 | COc1nc(N)nc2c1ncn2[C@@H]1O[C@H](COP(=O)(NCc2ccccc2)OCCSC(=O)C(C)(C)CO)C(O)C1(C)O (stereo partly shown) [Compound 57] |  |  | > 75 µM |  | < 0.1 µM
4 | CCOC(=O)[C@H](CC(C)C)NP(=O)(N[C@@H](CC(C)C)C(=O)OCC)OC[C@H]1O[C@@H](n2cnc3c(N4CCOCC4)nc(N)nc32)C(C)(O)C1O (stereo partly shown) [Compound 34] |  |  | > 75 µM | 0.1 to 1 µM | 
5 | COC(=O)C1CCCN1P(=O)(OC[C@H]1O[C@@H](n2cnc3c(OC)nc(N)nc32)C(C)(O)C1O)N1CCCC1C(=O)OC (stereo partly shown) [Compound 60] |  |  | > 75 µM | 0.1 to 1 µM | 
6 | C#CC1(F)C(O)[C@@H](COP(=O)(N[C@@H](CC(C)C)C(=O)OCC)N[C@H](CC(C)C)C(=O)OCC)O[C@H]1n1cnc2c(NC3CC3)nc(N)nc21 (stereo partly shown) [Compound 81] |  |  | ≤ 75 µM | 1 to 10 µM | 
7 | CCCCOC(=O)[C@H](CC(C)C)NP(=O)(N[C@@H](CC(C)C)C(=O)OCCCC)OC[C@H]1O[C@@H](n2cnc3c(OC)nc(N)nc32)[C@@](C)(O)C1O (stereo partly shown) [Compound 44] |  |  | ≤ 75 µM | < 0.1 µM | 
8 | CCOC(=O)[C@H](CC(C)C)NP(=O)(N[C@H](CC(C)C)C(=O)OCC)OC[C@H]1O[C@@H](n2cnc3c(OCC)nc(N)nc32)C(C)(O)C1O (stereo partly shown) [Compound 64] |  |  | > 75 µM | < 0.1 µM | 
9 | COc1nc(N)nc2c1ncn2[C@@H]1O[C@H](COP(N)(=O)OCCSC(=O)C(C)(C)CO)C(O)C1(C)O (stereo partly shown) [Compound 73] |  |  | > 75 µM | 0.1 to 1 µM | 
10 | CCCOC(=O)[C@H](CC(C)C)NP(=O)(N[C@@H](CC(C)C)C(=O)OCCC)OC[C@H]1O[C@@H](n2cnc3c(OC)nc(N)nc32)[C@@](C)(O)C1O (stereo partly shown) [Compound 43] |  |  | ≤ 75 µM | < 0.1 µM | 
11 | CCOC(=O)[C@H](CC(C)C)NP(=O)(N[C@@H](CC(C)C)C(=O)OCC)OC[C@H]1O[C@@H](n2cnc3c(N4CCCC4)nc(N)nc32)C(C)(O)C1O (stereo partly shown) [Compound 36] |  |  | > 75 µM | < 0.1 µM | 
